Measurements published in ChEMBL document CHEMBL1201862, “PubChem BioAssay data set” (2004).
Active and inactive are the calls of the source.

How the values were obtained:
[1] = target: Peroxisome proliferator-activated receptor gamma/Nuclear receptor coactivator 1 (Homo sapiens, UniProt P37231); assay: TR-FRET dose response biochemical High Throughput Screening assay for agonists of the steroid receptor coactivator 1 (SRC-1) recruitment by the peroxisome proliferator-activated receptor gamma (PPAR gamma): non-selective agonists. [Related pubchem assays (depositor defined):AID1300, AID1808, AID504735, AID631]; assay type: protein assay
[2] = target: Peroxisome proliferator-activated receptor gamma/Nuclear receptor coactivator 3 (Homo sapiens, UniProt P37231); assay: TR-FRET dose response biochemical High Throughput Screening assay for agonists of the steroid receptor coactivator 3 (SRC-3) recruitment by the peroxisome proliferator-activated receptor gamma (PPAR gamma): non-selective agonists. [Related pubchem assays: 1301 (Confirmation screen.), 1048 (Primary screen.)]; assay type: functional
[3] = target: Peroxisome proliferator-activated receptor gamma/Nuclear receptor coactivator 2 (Homo sapiens, UniProt P37231); assay: TR-FRET dose response biochemical High Throughput Screening assay for agonists of the steroid receptor coactivator 2 (SRC-2) recruitment by the peroxisome proliferator-activated receptor gamma (PPAR gamma): non-selective agonists. [Related pubchem assays: 1297, 1032 ]; assay type: functional
SUMO-activating enzyme = SUMO-activating enzyme (Homo sapiens, UniProt Q9UBT2); assay: blockers of UBC9-mediated SUMO conjugation – biochemical, AlphaScreen, SUMOylation inhibitor project, confirmation (AID 2018); assay type: functional
[4] = HEK-293T cell viability reduction – luminescence, B-cell screen hits, cytotoxicity control for BCR NF-kB inhibitor project, dose response (AID 489021); assay type: functional, cell-based;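 note: HEK-293T cells carrying an NF-kB luciferase reporter; cells exposed to compound for about 14 hours before viability readout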
Escherichia coli = assay: microbe, parasite or virus in culture
[5] = target: T1, Microphthalmia-associated transcription factor (Homo sapiens, UniProt O75030); assay: reducers of TRPM1 reporter luminescence, concentration series – cell-based, SK-MEL-5, cherry-picked, set 3, MITF inhibitor project, dose response (AID 493073); assay type: functional;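 note: SK-MEL-5 melanoma cells with luciferase driven by the MITF target TRPM1 promoter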
T1 sequence (O75030 whole entry): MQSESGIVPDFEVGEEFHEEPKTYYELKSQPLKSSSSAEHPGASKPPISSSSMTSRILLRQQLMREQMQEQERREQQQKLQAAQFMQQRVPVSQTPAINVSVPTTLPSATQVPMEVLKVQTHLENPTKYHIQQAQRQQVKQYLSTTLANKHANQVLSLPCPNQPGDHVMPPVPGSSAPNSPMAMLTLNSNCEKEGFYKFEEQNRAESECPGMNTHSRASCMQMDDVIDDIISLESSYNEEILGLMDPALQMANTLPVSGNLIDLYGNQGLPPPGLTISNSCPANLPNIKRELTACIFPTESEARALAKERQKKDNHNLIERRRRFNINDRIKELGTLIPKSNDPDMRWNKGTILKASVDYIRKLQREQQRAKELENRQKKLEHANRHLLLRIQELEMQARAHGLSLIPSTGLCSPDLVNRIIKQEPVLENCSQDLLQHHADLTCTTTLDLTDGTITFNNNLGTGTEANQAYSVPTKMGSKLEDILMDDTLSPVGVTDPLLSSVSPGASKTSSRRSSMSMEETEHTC

A-375 = assay: MITF: Counter assay: A375 proliferation Measured in Cell-Based System Using Plate Reader - 2084-03_Inhibitor_Dose_DryPowder_Activity. [Related pubchem assays (depositor defined):AID488944]; assay type: functional; conditions: Homo sapiens
Coagulation factor XII = target: T2, Coagulation factor XII (Homo sapiens, UniProt P00748); assay type: functional;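 note: activated factor XIIa alpha cleaving a fluorogenic AMC peptide substrate; inhibitor potency from loss of enzyme activity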
T2 sequence (P00748 whole entry): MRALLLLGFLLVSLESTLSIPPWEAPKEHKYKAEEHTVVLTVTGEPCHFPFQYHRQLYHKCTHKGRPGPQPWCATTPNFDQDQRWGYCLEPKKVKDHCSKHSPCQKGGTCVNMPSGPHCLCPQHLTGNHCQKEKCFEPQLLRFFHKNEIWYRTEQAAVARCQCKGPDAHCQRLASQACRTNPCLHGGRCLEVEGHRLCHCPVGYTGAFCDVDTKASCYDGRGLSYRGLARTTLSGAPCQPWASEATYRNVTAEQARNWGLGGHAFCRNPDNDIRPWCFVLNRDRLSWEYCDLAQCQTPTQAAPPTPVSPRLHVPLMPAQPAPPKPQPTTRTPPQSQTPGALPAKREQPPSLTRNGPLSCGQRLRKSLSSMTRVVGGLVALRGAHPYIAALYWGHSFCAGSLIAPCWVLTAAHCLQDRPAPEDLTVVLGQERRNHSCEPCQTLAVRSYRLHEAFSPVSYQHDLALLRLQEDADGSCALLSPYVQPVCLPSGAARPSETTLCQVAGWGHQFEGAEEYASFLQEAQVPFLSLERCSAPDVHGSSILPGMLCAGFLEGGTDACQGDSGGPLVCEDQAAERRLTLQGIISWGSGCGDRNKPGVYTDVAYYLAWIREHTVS

HEK293 [6] = assay: inhibition of NOD1-driven NF-kB reporter – cell-based, luminescence, uHTS, primary screen (AID 1578); assay type: functional; conditions: Homo sapiens
HEK293 [7] = assay: cells; assay type: functional, cell-based; conditions: Homo sapiens
HEK293 [8] = assay: cells; assay type: functional, cell-based; conditions: Homo sapiens; remark: listed apart in the source
HEK293 [9] = assay: NOD2 signaling inhibitors in MDP-stimulated cells, cell-based, uHTS, luminescence (AID 2001); assay type: functional; conditions: Homo sapiens
[10] = target: T3, Calpain-2 catalytic subunit (Sus scrofa, UniProt P43367); assay: m-calpain protease blockers, concentration series – biochemical, fluorogenic peptide substrate, dose response (AID 1420); assay type: functional
T3 sequence (P43367 whole entry): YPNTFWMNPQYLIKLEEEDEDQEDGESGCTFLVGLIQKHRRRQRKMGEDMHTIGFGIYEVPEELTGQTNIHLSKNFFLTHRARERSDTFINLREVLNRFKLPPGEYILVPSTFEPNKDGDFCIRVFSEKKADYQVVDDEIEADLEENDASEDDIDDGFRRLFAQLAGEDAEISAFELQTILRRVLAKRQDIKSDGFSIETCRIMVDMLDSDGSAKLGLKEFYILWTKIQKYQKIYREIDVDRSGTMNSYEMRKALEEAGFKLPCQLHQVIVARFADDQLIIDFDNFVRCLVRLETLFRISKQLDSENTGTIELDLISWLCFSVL

[11] = reduction of Shn3 3'UTR-driven luciferase in osteoblasts – cell-based, Clone20 osteoblasts, firefly luciferase, cherry-picked, dose response (AID 624132); assay type: functional;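 note: firefly luciferase luminescence from reporter carrying the Shn3 3'UTR in osteoblasts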
[12] = loss of viability in HepG2 cells – cell-based, CellTiter-Glo, cherry-picked, cytotoxicity control for Shn3 inhibitor project, dose response (AID 624134); assay type: functional
[13] = non-specific 3'UTR reporter inhibition in Clone20-Shn3RL – cell-based, Renilla luciferase, cherry-picked, counter-screen for Shn3 inhibitor project, dose response (AID 624133); assay type: functional
cells = assay type: functional, cell-based
[14] = target: T4, Lysine-specific demethylase 4C (Homo sapiens, UniProt Q9H3R0); assay: inhibition of JMJD2C H3K9me3 demethylation – biochemical, DELFIA europium, cherry-picked samples, dose response (AID 488835); assay type: functional
T4 sequence (Q9H3R0 whole entry): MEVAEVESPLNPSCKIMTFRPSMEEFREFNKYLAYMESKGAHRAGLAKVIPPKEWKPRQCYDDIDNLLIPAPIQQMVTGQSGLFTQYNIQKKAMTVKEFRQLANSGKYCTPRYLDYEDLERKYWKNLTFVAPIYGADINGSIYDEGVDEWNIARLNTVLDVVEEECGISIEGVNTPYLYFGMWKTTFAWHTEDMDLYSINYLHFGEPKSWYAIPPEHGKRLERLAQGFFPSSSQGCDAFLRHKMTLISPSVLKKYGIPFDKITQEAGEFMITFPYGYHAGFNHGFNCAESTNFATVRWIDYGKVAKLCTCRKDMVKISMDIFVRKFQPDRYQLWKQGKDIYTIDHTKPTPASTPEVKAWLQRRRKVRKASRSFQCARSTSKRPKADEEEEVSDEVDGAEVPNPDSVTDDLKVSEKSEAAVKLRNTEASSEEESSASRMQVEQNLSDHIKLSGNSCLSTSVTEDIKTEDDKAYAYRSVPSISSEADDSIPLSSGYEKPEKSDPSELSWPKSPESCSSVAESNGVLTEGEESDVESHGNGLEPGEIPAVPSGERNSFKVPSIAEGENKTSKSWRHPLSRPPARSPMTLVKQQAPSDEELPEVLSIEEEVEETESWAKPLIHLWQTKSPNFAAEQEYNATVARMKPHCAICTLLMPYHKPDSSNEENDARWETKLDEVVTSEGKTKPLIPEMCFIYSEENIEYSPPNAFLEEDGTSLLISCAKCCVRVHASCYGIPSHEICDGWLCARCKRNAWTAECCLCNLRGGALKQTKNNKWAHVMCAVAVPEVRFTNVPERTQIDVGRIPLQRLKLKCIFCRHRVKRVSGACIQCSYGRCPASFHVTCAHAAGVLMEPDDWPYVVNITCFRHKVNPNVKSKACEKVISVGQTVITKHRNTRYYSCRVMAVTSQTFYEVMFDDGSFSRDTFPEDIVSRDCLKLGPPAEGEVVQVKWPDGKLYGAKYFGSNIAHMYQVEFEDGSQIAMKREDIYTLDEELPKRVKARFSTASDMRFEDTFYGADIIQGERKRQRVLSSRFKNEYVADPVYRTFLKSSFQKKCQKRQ

Cytochrome P450 2C19 = Cytochrome P450 2C19 (Homo sapiens, UniProt P33261); assay: Cytochrome panel assay with activity outcomes. Panel member name: p450-cyp2c19 Compounds with AC50 equal or less than 10 uM are considered active; assay type: functional; conditions: read-out: AC50
Cytochrome P450 3A4 = Cytochrome P450 3A4 (Homo sapiens, UniProt P08684);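 note: CYP3A4 tested as one member of a cytochrome P450 panel screen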
Cytochrome P450 1A2 = target: T5, Cytochrome P450 1A2 (Homo sapiens, UniProt P05177);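 note: PubChem cytochrome P450 panel assay, CYP1A2 panel member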
T5 sequence (P05177 whole entry): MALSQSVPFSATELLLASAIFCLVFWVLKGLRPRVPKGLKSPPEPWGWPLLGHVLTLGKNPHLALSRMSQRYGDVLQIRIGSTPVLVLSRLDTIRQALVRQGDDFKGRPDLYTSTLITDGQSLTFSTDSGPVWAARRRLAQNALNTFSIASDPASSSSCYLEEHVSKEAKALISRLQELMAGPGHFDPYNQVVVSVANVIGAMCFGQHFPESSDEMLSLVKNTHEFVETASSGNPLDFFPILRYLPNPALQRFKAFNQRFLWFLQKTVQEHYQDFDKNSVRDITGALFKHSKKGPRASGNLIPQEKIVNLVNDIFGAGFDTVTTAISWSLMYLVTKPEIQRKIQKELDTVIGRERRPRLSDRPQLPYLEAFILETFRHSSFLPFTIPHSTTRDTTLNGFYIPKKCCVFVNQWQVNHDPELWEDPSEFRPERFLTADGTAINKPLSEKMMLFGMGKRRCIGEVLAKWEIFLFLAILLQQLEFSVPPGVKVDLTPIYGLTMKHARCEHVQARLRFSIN

Peroxisome proliferator-activated receptor gamma/Nuclear receptor coactivator 2, sequence (P37231 whole entry): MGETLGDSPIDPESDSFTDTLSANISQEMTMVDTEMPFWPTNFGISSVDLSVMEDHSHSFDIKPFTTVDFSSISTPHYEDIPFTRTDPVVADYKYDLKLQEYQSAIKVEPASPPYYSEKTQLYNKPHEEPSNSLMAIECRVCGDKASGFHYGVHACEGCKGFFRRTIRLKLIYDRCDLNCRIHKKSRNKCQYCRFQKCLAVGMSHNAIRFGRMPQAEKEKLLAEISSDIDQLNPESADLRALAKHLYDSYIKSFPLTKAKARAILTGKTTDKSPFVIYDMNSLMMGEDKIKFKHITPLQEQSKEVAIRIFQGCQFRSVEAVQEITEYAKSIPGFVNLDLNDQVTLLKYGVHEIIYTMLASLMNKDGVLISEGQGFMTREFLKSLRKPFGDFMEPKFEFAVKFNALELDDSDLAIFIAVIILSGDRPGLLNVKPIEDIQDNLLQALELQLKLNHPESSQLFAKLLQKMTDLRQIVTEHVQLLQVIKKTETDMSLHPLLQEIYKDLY
Peroxisome proliferator-activated receptor gamma/Nuclear receptor coactivator 2, sequence (Q15596 whole entry, further chain): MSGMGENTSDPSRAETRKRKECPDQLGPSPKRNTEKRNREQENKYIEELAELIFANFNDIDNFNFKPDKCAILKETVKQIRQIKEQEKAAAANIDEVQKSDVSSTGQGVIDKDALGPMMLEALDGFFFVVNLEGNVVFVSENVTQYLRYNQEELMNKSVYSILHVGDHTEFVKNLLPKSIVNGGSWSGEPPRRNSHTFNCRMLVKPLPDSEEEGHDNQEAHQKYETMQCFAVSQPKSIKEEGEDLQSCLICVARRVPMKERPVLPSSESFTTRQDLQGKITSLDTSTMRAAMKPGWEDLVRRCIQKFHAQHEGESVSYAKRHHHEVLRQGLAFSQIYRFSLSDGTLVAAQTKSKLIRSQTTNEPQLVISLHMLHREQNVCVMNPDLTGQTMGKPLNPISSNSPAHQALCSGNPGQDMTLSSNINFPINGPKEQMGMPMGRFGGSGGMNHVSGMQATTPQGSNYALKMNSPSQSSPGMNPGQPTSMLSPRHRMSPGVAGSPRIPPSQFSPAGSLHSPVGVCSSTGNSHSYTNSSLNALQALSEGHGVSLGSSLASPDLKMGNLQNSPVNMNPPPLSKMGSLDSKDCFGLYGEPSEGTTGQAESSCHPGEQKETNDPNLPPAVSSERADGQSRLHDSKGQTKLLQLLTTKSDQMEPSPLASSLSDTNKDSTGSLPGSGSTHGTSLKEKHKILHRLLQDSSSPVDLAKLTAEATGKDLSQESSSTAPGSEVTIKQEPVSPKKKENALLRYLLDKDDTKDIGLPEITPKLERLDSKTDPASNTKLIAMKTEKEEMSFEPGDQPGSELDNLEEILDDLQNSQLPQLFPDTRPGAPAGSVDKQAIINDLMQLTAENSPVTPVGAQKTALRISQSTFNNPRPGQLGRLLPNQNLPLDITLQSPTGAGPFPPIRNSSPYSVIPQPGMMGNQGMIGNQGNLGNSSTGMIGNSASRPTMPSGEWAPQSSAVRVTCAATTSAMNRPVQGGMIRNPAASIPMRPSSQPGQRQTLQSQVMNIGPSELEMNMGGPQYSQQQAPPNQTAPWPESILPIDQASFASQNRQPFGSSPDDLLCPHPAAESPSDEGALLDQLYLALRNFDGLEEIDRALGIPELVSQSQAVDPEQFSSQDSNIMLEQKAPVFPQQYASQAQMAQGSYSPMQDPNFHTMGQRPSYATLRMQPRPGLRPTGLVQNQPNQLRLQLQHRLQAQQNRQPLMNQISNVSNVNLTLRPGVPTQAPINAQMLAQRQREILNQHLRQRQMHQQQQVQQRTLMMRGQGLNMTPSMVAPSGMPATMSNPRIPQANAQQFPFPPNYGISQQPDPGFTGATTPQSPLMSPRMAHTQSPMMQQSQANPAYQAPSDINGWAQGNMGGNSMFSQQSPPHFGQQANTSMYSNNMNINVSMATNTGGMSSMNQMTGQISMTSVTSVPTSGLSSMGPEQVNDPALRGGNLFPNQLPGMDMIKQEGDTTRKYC
Peroxisome proliferator-activated receptor gamma/Nuclear receptor coactivator 3, sequence (P37231 whole entry): as the sequence (P37231 whole entry) above
Peroxisome proliferator-activated receptor gamma/Nuclear receptor coactivator 3, sequence (Q9Y6Q9 whole entry, further chain): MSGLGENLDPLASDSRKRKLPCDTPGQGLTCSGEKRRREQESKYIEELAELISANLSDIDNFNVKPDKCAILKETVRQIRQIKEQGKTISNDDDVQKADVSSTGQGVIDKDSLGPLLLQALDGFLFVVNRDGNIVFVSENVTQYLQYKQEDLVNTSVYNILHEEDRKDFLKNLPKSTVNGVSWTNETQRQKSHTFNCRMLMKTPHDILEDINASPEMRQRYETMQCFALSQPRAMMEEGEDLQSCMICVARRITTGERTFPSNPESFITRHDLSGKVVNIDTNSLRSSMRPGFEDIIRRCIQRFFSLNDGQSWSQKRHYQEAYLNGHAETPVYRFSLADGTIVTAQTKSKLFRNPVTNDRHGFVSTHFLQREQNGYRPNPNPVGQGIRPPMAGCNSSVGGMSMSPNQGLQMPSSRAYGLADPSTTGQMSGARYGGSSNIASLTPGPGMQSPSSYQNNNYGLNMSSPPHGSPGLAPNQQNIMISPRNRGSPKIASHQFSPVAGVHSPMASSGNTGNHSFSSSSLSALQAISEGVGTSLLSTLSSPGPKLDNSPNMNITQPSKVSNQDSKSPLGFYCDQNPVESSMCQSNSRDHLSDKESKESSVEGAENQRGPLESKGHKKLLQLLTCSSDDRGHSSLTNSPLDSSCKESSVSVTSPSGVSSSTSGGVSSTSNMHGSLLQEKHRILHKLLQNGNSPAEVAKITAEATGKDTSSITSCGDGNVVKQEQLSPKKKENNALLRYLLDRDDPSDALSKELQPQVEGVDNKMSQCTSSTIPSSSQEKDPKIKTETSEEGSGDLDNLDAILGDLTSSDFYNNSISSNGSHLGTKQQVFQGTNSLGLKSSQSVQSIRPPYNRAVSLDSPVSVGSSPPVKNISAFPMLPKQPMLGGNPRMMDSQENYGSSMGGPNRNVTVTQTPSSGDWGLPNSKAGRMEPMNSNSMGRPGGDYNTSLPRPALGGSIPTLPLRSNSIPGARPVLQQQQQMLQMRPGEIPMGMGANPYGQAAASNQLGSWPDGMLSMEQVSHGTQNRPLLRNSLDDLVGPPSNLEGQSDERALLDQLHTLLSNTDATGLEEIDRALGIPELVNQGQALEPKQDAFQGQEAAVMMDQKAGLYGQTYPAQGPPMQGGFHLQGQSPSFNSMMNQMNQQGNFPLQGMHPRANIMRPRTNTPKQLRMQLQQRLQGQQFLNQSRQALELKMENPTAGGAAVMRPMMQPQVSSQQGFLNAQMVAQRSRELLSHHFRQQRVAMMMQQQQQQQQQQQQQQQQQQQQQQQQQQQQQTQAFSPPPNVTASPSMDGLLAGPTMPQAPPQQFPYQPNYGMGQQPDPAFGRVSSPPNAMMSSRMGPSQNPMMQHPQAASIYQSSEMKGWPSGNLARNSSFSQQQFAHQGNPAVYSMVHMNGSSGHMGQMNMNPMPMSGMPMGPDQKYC
Cytochrome P450 3A4, sequence (P08684 whole entry): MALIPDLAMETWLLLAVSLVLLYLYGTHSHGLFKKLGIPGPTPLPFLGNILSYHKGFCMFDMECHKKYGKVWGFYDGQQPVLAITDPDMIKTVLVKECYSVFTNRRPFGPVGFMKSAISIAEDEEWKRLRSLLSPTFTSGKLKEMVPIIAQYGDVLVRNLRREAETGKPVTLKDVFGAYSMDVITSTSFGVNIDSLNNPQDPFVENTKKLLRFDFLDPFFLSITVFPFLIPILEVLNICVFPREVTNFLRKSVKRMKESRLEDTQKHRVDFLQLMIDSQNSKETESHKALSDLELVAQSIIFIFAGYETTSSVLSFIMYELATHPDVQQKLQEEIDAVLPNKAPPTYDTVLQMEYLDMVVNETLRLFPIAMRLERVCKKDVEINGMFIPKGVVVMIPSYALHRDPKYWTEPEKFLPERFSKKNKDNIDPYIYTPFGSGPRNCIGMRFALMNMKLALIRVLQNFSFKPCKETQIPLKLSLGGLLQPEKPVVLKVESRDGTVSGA
Cytochrome P450 2C19, sequence (P33261 whole entry): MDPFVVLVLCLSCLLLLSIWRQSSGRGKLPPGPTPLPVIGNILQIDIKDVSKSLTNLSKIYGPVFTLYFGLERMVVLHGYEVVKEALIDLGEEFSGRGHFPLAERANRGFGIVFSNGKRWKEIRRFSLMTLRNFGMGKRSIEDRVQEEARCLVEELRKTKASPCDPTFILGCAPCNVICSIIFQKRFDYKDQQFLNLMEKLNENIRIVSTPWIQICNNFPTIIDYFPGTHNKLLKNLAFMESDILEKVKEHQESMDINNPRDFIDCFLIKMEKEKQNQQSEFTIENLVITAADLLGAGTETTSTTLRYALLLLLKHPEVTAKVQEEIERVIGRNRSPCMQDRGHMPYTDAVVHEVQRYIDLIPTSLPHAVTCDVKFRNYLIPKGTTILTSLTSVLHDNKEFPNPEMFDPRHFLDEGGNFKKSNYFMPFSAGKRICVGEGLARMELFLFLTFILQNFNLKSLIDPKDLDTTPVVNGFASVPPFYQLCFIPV

O=C(Nc1ccc(S(=O)(=O)Nc2ncccn2)cc1)c1ccc(Br)s1
EC50 [1]: > 79.4 µM (inactive)
EC50 [2]: > 79.4 µM (not active)
EC50 [3]: > 79.4 µM (not active)

COc1cccc(OC)c1C(=O)Nc1nnc(-c2cccs2)s1
EC50 [1]: 17.7 µM (inactive)
EC50 [2]: > 79.4 µM (not active)
EC50 [3]: 22 µM (not active)

CCc1nn(CC(=O)NC(C)CCc2ccccc2)c(=O)c2cc3cc(F)ccc3n12 (configuration not stated)
IC50 (SUMO-activating enzyme): 45.3 µM (active)

CCn1c(=O)cc(SCC(=O)NCc2ccc3c(c2)OCO3)c2ccccc21
EC50 [1]: > 79.4 µM (inactive)
EC50 [2]: > 79.4 µM (not active)
EC50 [3]: > 79.4 µM (not active)

CCn1c(=O)cc(SCC(=O)N2CCC3(CC2)OCCO3)c2ccccc21
EC50 [1]: > 79.4 µM (inactive)
EC50 [2]: > 79.4 µM (not active)
EC50 [3]: > 79.4 µM (not active)
IC50 [4]: > 80 µM (inactive)

O=C(CCNC(=O)c1ccc([N+](=O)[O-])cc1)Nc1cccc(S(=O)(=O)N2CCCCCC2)c1
AC50 (Escherichia coli): 57 µM (active)

CCN1CCN(C2=C(NS(=O)(=O)c3ccc(C)cc3)C(=O)c3ccccc3C2=O)CC1
AC50 [5]: 4.18 µM (active)
AC50 (A-375): 36.6 µM (active)

Cc1cc(NC(=O)CCN2C(=O)/C(=C/c3ccccc3F)SC2=S)no1
IC50 (Coagulation factor XII): > 50 µM (inactive)

CC(C)Cn1c(N)c(C(=O)COC(=O)CC23CC4CC(CC(C4)C2)C3)c(=O)n(C)c1=O
EC50 (HEK293 [6]): 3.06 µM (active)
IC50 (HEK293 [7]): 2.31 µM (active)
IC50 (HEK293 [8]): 6.35 µM (active)
IC50 (HEK293 [9]): 3.31 µM (active)
IC50 [10]: 5.92 µM (not active)
AC50 [11]: 1.51 µM (active)
AC50 [12]: 1.7 µM (active)
AC50 [13]: 0.435 µM (active)

COc1ccc(-c2csc(NNC3=NCCCCC3)n2)cc1
EC50 (cells): > 350 µM (not active)
AC50 [14]: 7.08 µM (active)

Cc1cc(NC(=O)CSc2nc3ccsc3c(=O)n2CCCCC(=O)O)no1
AC50 (Cytochrome P450 2C19): 3.98 µM (inconclusive)
AC50 (Cytochrome P450 3A4): inconclusive

CCc1cccc(CC)c1N(COC)C(=O)Cn1c(CO)nc2ccccc21
IC50 (Coagulation factor XII): > 50 µM (inactive)

Cc1ccc2nc(SCc3nnc(-c4ccccc4[N+](=O)[O-])o3)c(C#N)cc2c1
AC50 (Cytochrome P450 1A2): 1.58 µM (inconclusive)
AC50 (Cytochrome P450 3A4): inconclusive

CO[C@@]12[C@@H]3N[C@@H]3CN1C1=C(C(=O)C(N)=C(C)C1=O)[C@@H]2COC(N)=O
AC50 (Escherichia coli): 0.496 µM (active)

COC(=O)[C@@H](N)Cc1ccc(O)c(O)c1
AC50 [14]: 11.5 µM (active)

O=C(CN(Cc1ccco1)C(=O)c1ccccc1F)Nc1ccccc1C(F)(F)F
AC50 (Escherichia coli): 103 µM (active)

COCCCNC(=O)C1CCN(C(=O)Nc2ccc(Cl)cc2)CC1
AC50 [14]: 44.8 µM (active)
